Read-outs that look alike come from different tables or passages of the source.
Columns and labels:
[1] = test system: HIV-1 clinical isolates; assay: microbe, parasite or virus in culture; type: cell-based
[2] = test system: HIV-1IIIB; assay: Time of drug addition study, MT-4 cells (p24); type: cell-based; settings: 100-fold IC50, MOI 1, p24 at 29 hour
[3] = test system: HIV-1 laboratory isolates; assay: HIV-1 infection of PBMCs (p24); type: cell-based; settings: read-out: IC50 viral production
[4] = test system: HIV-1 infected PBMCs
[5] = test system: HIV-1 strains (SKI, RF, DV, IIIB, ADP/141); assay: microbe, parasite or virus in culture; type: cell-based; settings: Human immunodeficiency virus 1, IIIB
[6] = set-up: species or system cynomolgus monkeys; settings: cynomolgus monkey, in vivo
Protocol: Dosing. Twelve experimentally naive cynomolgus monkeys were assigned to four groups of three animals each. Prior to dosing, each animal was lightly sedated with a combination of ketamine (1 0 mg/kg) and diazepam (0.5 mg/kg), and a catheter was introduced into the femoral artery for recording central arterial pressure. Monkeys were given a single intravenous infusion of 5, 20, or 50 mg AR177/kg or saline over ten minutes through a cephalic vein catheter using a Harvard infusion pump. Arterial blood samples were drawn at −10, +10, +20, +40, +60 and +120 minutes relative to the initiation of infusion into EDTA-containing tubes for hematology, complement factors, coagulation assay, serum chemistry, and plasma AR177 determination. At 24 hours post-infusion, blood was drawn via the femoral vein into EDTA-containing tubes for these same parameters. The concentration of AR177 in dosing solutions was confirmed post experiment by absorbance at 280 nm on a spectrophotometer. For the determination of AR177 by HPLC, the plasma fraction was obtained by low speed centrifugation of blood, and stored at −20° C. until used. Electrocardiograms (ECGs), central pressure, and heart rate were recorded continuously for 120 minutes following the initiation of doing. Table E-1 summarizes the study design. The animals were observed twice daily pharmacotoxic signs and general health beginning two days before dosing and for seven days following dosing. The monkeys were not necropsied at the end of the study.
Hematology and coagulation parameters. The following are determined: red blood cell count and morphology, total and differential white blood cells, hemoglobin, hematocrit, prothrombin time, fibrinogen, mean cell hemoglobin, mean corpuscular volume, mean corpuscular hemoglobin concentration, platelet count, and activated partial thromboplastin time. Hematology parameters were determined at Sierra Nevada Laboratories (Reno, Nev.).

Cc1cn([C@H]2C[C@H](N=[N+]=[N-])[C@@H](CO)O2)c(=O)[nH]c1=O [AZT, 3′-azido-3′-deoxythymidine] gave an IC50 ([1]; Human immunodeficiency virus 1, read-out: IC50 values over the clinical isolates tested in PBLs, range over isolates) of 10 to 1650 nM, an IC50 ([1]; Human immunodeficiency virus 1, read-out: IC50 viral production, PBLs, clinical isolate 942716) of 2 ± 3 nM and an IC50 ([1]; Human immunodeficiency virus 1, read-out: IC50 viral production, PBLs, clinical isolate 942751) of 28 ± 2.5 nM. For the same molecule, the IC50 ([1]; Human immunodeficiency virus 1, read-out: IC50 viral production, PBLs, clinical isolate BAKI (SI)) was 20 ± 6 nM, the IC50 ([1]; Human immunodeficiency virus 1, read-out: IC50 viral production, PBLs, clinical isolate BLCH (NSI)) was 22 ± 0.8 nM and the IC50 ([1]; Human immunodeficiency virus 1, read-out: IC50 viral production, PBLs, clinical isolate JOGA (NSI)) was greater than 1000 nM. For the same molecule, the IC50 ([1]; Human immunodeficiency virus 1, read-out: IC50 viral production, PBLs, clinical isolate N. Amer. #1) was 10 ± 4 nM, the IC50 ([1]; Human immunodeficiency virus 1, read-out: IC50 viral production, PBLs, clinical isolate N. Amer. #2) was 1650 ± 7 nM and the IC50 ([1]; Human immunodeficiency virus 1, read-out: IC50 viral production, PBLs, clinical isolate ROJO (SI)) was 52 ± 0.4 nM. It also gave an IC50 ([1]; Human immunodeficiency virus 1, read-out: IC50 viral production, PBLs, clinical isolate S. E. Asia) of 60 ± 5 nM, an IC50 ([1]; Human immunodeficiency virus 1, read-out: IC50 viral production, PBLs, clinical isolate VIHU (NSI)) of 36 ± 0.7 nM and an IC50 ([1]; Human immunodeficiency virus 1, read-out: IC50 viral production, PBLs, clinical isolate WEJO (SI)) of 17 ± 0.1 nM. For the same molecule, the IC50 ([1]; Human immunodeficiency virus 1, read-out: IC50 viral production, PBLs, clinical isolate WOME (SI)) was 25 ± 0.3 nM, the “delay of drug addition post-infection at which inhibitory effect is lost” value [2] was 3 or 4 hours post-infection and the IC50 ([3]; Human immunodeficiency virus 1, IIIB, PBMC, HIV-1 IIIB) was 3 ± 0.2 nM. The IC50 ([3]; Human immunodeficiency virus 1, PBMC, HIV-1 JRCSF) was 2.5 ± 1 nM, the IC50 ([3]; Human immunodeficiency virus 1, PBMC, HIV-1 MN) was 53 ± 1 nM and the IC50 ([3]; Human immunodeficiency virus 1, PBMC, HIV-1 RF) was 272 ± 3 nM. For the same molecule, the “% CD4” value ([4]; IIIB, drug 0.1 μM, day 7) was 31%, the “% CD8” value ([4]; IIIB, drug 0.1 μM, day 7) was 79% and the “% CD4” value ([4]; IIIB, drug 1.0 μM) was 30%. The “% CD8” value ([4]; IIIB, drug 1.0 μM) was 81%, the “% CD4” value ([4]; IIIB, drug 5.0 μM) was 27% and the “% CD8” value ([4]; IIIB, drug 5.0 μM) was 86%. For the same molecule, the “% CD4” value ([4]; MN, drug 0.1 μM) was 25%, the “% CD8” value ([4]; MN, drug 0.1 μM) was 82% and the “% CD4” value ([4]; MN, drug 1.0 μM) was 35%. The “% CD8” value ([4]; MN, drug 1.0 μM) was 79%, the “% CD4” value ([4]; MN, drug 5.0 μM) was 36% and the “% CD8” value ([4]; MN, drug 5.0 μM) was 78%. The “% CD4” value ([4]; N. Amer. #1, drug 0.1 μM) was 25%, the “% CD8” value ([4]; N. Amer. #1, drug 0.1 μM) was 83% and the “% CD4” value ([4]; N. Amer. #1, drug 1.0 μM) was 25%. The “% CD8” value ([4]; N. Amer. #1, drug 1.0 μM) was 84%, the “% CD4” value ([4]; N. Amer. #1, drug 5.0 μM) was 26% and the “% CD8” value ([4]; N. Amer. #1, drug 5.0 μM) was 85%. The “% CD4” value ([4]; N. Amer. #2, drug 0.1 μM) was 6%, the “% CD8” value ([4]; N. Amer. #2, drug 0.1 μM) was 95% and the “% CD4” value ([4]; N. Amer. #2, drug 1.0 μM) was 13%. The “% CD8” value ([4]; N. Amer. #2, drug 1.0 μM) was 89%, the “% CD4” value ([4]; N. Amer. #2, drug 5.0 μM) was 25% and the “% CD8” value ([4]; N. Amer. #2, drug 5.0 μM) was 85%. The “% CD4” value ([4]; RF, drug 0.1 μM) was 23%, the “% CD8” value ([4]; RF, drug 0.1 μM) was 84% and the “% CD4” value ([4]; RF, drug 1.0 μM) was 32%. The “% CD8” value ([4]; RF, drug 1.0 μM) was 76%, the “% CD4” value ([4]; RF, drug 5.0 μM) was 34% and the “% CD8” value ([4]; RF, drug 5.0 μM) was 81%. For the same molecule, the “% CD4” value ([4]; SE Asia isolate, drug 0.1 μM) was 29%, the “% CD8” value ([4]; SE Asia isolate, drug 0.1 μM) was 82% and the “% CD4” value ([4]; SE Asia isolate, drug 1.0 μM) was 31%. For the same molecule, the “% CD8” value ([4]; SE Asia isolate, drug 1.0 μM) was 82%, the “% CD4” value ([4]; SE Asia isolate, drug 5.0 μM) was 29% and the “% CD8” value ([4]; SE Asia isolate, drug 5.0 μM) was 86%. For the same molecule, the IC50 ([5]; CEM-SS, read-out: Antiviral Assay IC50 IIIB, HIV-1 IIIB, CEM-SS or MT4) was 2 nM, the IC50 ([5]; CEM-SS, read-out: Antiviral Assay IC50 RF, HIV-1 RF, CEM-SS or MT4) was 7 nM and the IC50 ([5]; CEM-SS, read-out: Antiviral Assay IC50 SKI, HIV-1 SKI, CEM-SS or MT4) was 22 nM. It also gave an IC50 ([5]; CEM-SS, read-out: IC50 (cpe assay), RF (CEM-SS), MOI 0.01) of 10 nM, an IC50 ([5]; CEM-SS, read-out: IC50 (cpe assay), RF (CEM-SS), MOI 0.02) of 20 nM and an IC50 ([5]; CEM-SS, read-out: IC50 (cpe assay), RF (CEM-SS), MOI 0.04) of 70 nM. The IC50 ([5]; CEM-SS, read-out: IC50 (cpe assay), RF (CEM-SS), MOI 0.64) was greater than 10000 nM, the IC50 ([5]; CEM-SS, read-out: IC50 (cpe assay), RF (CEM-SS), MOI 1.28) was greater than 10000 nM and the IC50 ([5]; CEM-SS, read-out: IC50 virus production, HIV-1 IIIB, CEM-SS) was 2 ± 0.3 nM. It also gave an IC50 ([5]; CEM-SS, read-out: IC50 virus production, HIV-1 RF, CEM-SS, MOI 0.01) of 7 nM, an IC50 ([5]; CEM-SS, read-out: IC50 virus production, HIV-1 SKI, CEM-SS, MOI 0.01) of 22 ± 0.1 nM and an IC90 ([5]; CEM-SS, read-out: IC90 (cpe assay), RF (CEM-SS), MOI 0.16) greater than 10000 nM. The IC90 ([5]; CEM-SS, read-out: IC90 (cpe assay), RF (CEM-SS), MOI 0.32) was greater than 10000 nM, the IC90 ([5]; CEM-SS, read-out: IC90 (cpe assay), RF (CEM-SS), MOI 0.64) was greater than 10000 nM and the IC90 ([5]; CEM-SS, read-out: IC90 (cpe assay), RF (CEM-SS), MOI 1.28) was greater than 10000 nM. The IC50 ([5]; SUP-T1, read-out: IC50 virus production, HIV-1 DV, SUP T1) was 30 ± 5 nM, the IC50 ([5]; SUP-T1, read-out: IC50 virus production, HIV-1 IIIB, SUP T1) was 30 ± 6 nM and the IC50 ([5]; read-out: IC50 (cpe assay)) was 37 nM. The IC50 ([5]; read-out: IC50 (cpe assay), IIIB (MT4), MOI 0.01) was 10 nM, the IC50 ([5]; read-out: IC50 virus production, HIV-1 IIIB, AA5) was less than 3 nM and the IC50 ([5]; read-out: IC50 virus production, HIV-1 IIIB, MT2) was 10 ± 4 nM. For the same molecule, the IC50 ([5]; read-out: IC50 virus production, HIV-1 RF, MT2) was 30 ± 5 nM and the IC90 ([5]; read-out: IC90 (cpe assay), IIIB (MT4), MOI 0.3) was 3300 nM.

For “5′-gtggtgggtgggtgggt-3′ (GTGGTGGGTGGGTGGGT; phosphorothioate termini, further chemistry not given here) [T30177, pPT version of parent compound I100-15, 17 mer]”, the “delay of drug addition post-infection at which inhibitory effect is lost” value [2] was “one hour”, the IC50 ([3]; HIV-1 IIIB) was 120 nM and the IC50 ([3]; HIV-1 JRCSF) was 280 ± 40 nM. The IC50 ([3]; HIV-1 MN) was 1350 ± 100 nM, the IC50 ([3]; HIV-1 RF) was 750 ± 130 nM and the “anticoagulant potency, less potent than thrombin-binding aptamer oligonucleotide” value [6] was 40 fold. For the same molecule, the hematology values [6] was “no changes in hematology values attributable to AR177”.

Reference: US6355785B1, “Guanosine-rich oligonucleotide integrase inhibitors” (Aronex Pharmaceuticals, Inc., priority 1993, dated 2002)
